Data on 15 molecules can be found in patent publication US11680070B2, “Thieno[2,3-c]pyridazin-4(1H)-one derivative and application thereof” (MEDSHINE DISCOVERY INC., priority 2018, dated 2023).

For series [1], the target named is human acetyl-CoA carboxylase 1 (hACC1) (Homo sapiens, UniProt Q13085). Briefly: In vitro ACC enzyme inhibition (ADP luminescence), hACC1. The class given is biochemical. The settings on record: human ACC1 enzyme; 15 min pre-incubation, 1 hour reaction at room temperature. On the procedure:
(§1) The IC50 value was determined to evaluate the ability of the test compounds to inhibit acetyl-CoA carboxylase (ACC).
(§2) Protein: human acetyl-CoA carboxylase 1 (hACC1) and human acetyl-CoA carboxylase 2 (hACC2).
(§3) Cofactor: acetyl coenzyme A, ATP
(§4) Activator: potassium citrate
(§5) 1. 1 time of the enzyme/substrate/cofactor was added to the wells of the well plate.
(§6) 2. According to Acoustic technology, the solutions of the compounds in DMSO were added to the above enzyme mixture and the mixture was pre-incubated for 15 minutes.
(§7) 3. ATP was added to initiate the reaction and the mixture was shaken until thoroughly mixed.
(§8) 4. The mixture was incubated for 1 hour at room temperature.
(§9) 5. After quenching the reaction, the incubation continued for 40 minutes.
(§10) 6. After adding the detection reagents, the mixture was incubated for 30 minutes.
(§11) 8. Data analysis: based on the standard curve of ADP, the luminescence was converted into ADP product concentration and the enzyme activity was calculated. Graphpad Prism software was used to fit the curve to obtain the IC50 value.

For series [2], the target named is human acetyl-CoA carboxylase 2 (hACC2) (Homo sapiens, UniProt O00763). Briefly: In vitro ACC enzyme inhibition (ADP luminescence), hACC2. The settings on record: human ACC2 enzyme; 15 min pre-incubation, 1 hour reaction at room temperature. The series is classed as biochemical. As for the experimental part:
as §1, §2, §3, §4, §5, §6, §7, §8, §9, §10, §11

Series [3] is described as follows: Pharmacokinetics in C57BL/6 mice (iv and oral). The class given is in vivo. The note with it: mouse, plasma, male C57BL/6 mice; for clearance / half-life / AUC(0-t): iv 2.0 mg/kg, oral 10 mg/kg (route not given); for half-life: read-out: Half-life T1/2 (converted); for bioavailability: oral 10 mg/kg vs iv 2.0 mg/kg, read-out: Bioavailability F. On the procedure:
Testing the pharmacokinetics characteristics of the compounds in C57BL/6 mice
C57BL/6 mice (male, 18-30 g, 7-9 weeks, Shanghai Lingchang Biotechnology Co., Ltd.)
The clear solution of the test compounds (0.5 mg/mL in 10% DMSO, 10% polyethylene glycol stearate, 80% water) was injected via tail vein into 4 male C57BL/6 mice (overnight fasted, 7-9 weeks), at a dose of 2.0 mg/kg. The suspensions or clear solutions of the test compounds (1 mg/mL in 10% PEG400, 90% (0.5% methylcellulose+0.2% Tween 80)) were administrated by oral gavage to 4 male C57BL/6 mice (overnight fasted, 7-9 weeks), at a dose of 10 mg/kg.
Two mice were set in each group and subjected to blood sampling alternatively, 4 to 5 time points per mouse. At 0.0833h (IV group only), 0.25 h, 0.5 h, 1.0 h, 2.0 h, 4.0 h, 6.0 h, 8.0 h, and 24 h after the intravenous or oral administration, about 30 μL of blood was collected by saphenous vein puncture and added into an anticoagulation tube with EDTA-K2, and the plasma was isolated by centrifugation. The drug plasma concentration was determined by LC-MS/MS, and WinNonlin™ Version 6.3 (Pharsight, Mountain View, Calif.) pharmacokinetic software was used to calculate relevant pharmacokinetic parameters using the non-compartmental model linear logarithmic trapezoidal method.

Series [4] has as its system NASH mouse model induced by HFD+CCl4. The series is described as follows: In vivo pharmacodynamic study in NASH mouse model induced by HFD+CCl4. The note with it: HFD+CCl4 mice; oral gavage QD Day 0-27; WX004B 0.5, 1, 3 mg/kg; reference I-181 3 mg/kg. The source says:
The objective of this research is to study the effect of the compound on improving NASH and liver fibrosis in HFD+CCl4 mouse model, with 1-181 as the reference compound.
1-181 is an Acetyl-CoA carboxylase inhibitor and is currently undergoing a phase II clinical study on non-alcoholic fatty liver disease (NAFLD). The HFD+CCl4 mouse model used in this study is an animal model simulating human non-alcoholic fatty liver disease evolving into NASH, high-fat diet causes the fat accumulation and steatosis in liver cells; CCl4 (intraperitoneal injection, twice a week) simulates the “second hit” of liver injury.
The modeling for this experiment included two steps of high-fat feed and CCl4 induction. Firstly, the mice were fed with high-fat feed to induce non-alcoholic fatty liver, and mice with body weight >38 g were selected. The mice were continuously fed with high-fat feed, and simultaneously intraperitoneally injected with 25% CCl4, […], twice a week, for a total of four weeks. The day of starting CCl4 administration was set as day 0, and the time of starting CCl4 administration was set as hour 0. On the day of starting CCl4 administration, the intragastric administration was started, and the administration volume of each group was 5 mL/kg, once a day for 4 weeks (28 days). […]

Sequence of human acetyl-CoA carboxylase 2 (hACC2) (O00763 whole entry): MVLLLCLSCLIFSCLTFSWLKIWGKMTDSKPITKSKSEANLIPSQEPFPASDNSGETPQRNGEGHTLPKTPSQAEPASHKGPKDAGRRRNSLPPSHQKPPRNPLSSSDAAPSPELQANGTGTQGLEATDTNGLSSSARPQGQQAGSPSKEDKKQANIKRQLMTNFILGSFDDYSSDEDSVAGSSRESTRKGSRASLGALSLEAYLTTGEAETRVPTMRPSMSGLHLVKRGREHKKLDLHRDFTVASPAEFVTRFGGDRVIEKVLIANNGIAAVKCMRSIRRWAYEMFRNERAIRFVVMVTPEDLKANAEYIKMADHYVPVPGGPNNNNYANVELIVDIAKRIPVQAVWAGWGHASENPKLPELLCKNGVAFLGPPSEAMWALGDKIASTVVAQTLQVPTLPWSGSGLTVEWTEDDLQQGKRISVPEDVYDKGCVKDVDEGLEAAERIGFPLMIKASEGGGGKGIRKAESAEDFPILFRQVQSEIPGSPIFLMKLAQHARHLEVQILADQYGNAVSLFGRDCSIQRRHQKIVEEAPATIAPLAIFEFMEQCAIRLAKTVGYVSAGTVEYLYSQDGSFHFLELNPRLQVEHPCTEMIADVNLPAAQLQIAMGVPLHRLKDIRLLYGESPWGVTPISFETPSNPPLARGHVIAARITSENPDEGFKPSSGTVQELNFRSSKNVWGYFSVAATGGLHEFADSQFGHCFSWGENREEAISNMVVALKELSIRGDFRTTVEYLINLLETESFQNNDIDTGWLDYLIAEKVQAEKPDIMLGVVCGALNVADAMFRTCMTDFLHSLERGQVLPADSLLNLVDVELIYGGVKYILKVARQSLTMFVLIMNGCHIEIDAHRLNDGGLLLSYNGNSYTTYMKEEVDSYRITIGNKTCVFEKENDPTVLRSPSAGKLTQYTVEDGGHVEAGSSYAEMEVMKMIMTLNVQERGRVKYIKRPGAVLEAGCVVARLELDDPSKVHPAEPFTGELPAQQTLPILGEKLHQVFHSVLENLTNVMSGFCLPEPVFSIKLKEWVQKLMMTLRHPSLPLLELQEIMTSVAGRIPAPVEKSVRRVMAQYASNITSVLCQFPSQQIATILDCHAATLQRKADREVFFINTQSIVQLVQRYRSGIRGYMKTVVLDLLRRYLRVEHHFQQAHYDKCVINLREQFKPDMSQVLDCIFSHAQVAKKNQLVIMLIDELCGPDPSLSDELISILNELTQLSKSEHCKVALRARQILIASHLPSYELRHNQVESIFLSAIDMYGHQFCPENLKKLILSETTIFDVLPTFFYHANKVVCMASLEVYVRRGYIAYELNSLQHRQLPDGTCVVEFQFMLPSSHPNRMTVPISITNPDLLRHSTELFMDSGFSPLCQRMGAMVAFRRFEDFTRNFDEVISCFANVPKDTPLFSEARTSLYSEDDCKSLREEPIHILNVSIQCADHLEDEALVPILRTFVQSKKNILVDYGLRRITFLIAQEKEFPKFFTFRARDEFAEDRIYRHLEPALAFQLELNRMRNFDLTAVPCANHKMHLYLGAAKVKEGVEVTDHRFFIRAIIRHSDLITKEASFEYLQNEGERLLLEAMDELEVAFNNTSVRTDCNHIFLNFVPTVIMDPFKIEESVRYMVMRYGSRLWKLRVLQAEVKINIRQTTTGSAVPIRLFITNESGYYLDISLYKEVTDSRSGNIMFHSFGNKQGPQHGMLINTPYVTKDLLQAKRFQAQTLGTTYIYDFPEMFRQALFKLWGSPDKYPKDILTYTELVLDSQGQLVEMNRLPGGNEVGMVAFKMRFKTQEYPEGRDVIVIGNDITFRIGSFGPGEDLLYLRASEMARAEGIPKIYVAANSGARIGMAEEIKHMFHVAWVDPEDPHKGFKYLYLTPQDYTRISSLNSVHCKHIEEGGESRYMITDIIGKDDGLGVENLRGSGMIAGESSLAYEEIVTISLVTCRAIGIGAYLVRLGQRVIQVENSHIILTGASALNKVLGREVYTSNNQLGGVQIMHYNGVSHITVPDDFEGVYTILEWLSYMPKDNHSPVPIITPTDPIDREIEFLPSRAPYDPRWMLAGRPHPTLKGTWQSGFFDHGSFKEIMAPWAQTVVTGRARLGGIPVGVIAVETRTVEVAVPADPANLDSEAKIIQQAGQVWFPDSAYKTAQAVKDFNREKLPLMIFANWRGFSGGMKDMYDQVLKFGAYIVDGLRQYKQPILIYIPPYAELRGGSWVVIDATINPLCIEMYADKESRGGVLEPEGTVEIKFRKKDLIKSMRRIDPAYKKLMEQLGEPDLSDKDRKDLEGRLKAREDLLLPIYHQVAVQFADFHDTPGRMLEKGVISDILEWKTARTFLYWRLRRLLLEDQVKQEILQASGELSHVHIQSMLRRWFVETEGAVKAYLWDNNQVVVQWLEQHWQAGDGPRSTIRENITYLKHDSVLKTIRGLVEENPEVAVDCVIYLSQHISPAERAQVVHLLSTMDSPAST

As a reminder, the IC50 is the concentration that gives 50% inhibition. Lower therefore signals higher potency. Regarding `COc1ccc(F)cc1[C@H](Cn1nc(C(C)(C)C(=O)O)c(=O)c2c(C)c(-c3ncco3)sc21)OC1CCOCC1` [WX016B], the IC50 in series [1] worked out at 0.0111 µM; in series [2], 0.0048 µM.

In general, bioavailability refers to the share of a dose that reaches the circulation, judged against a reference dose that is usually intravenous. Broadly, the AUC(0-t) is exposure summed from dosing to a finite time, without extrapolation to infinity. `COc1ccccc1[C@H](Cn1nc(C2(C(=O)O)CCOCC2)c(=O)c2c(C)c(-c3ncco3)sc21)OC1CCOCC1` [WX008B] came in with a concentration for half-maximal inhibition (IC50) in series [1] of 0.0053 µM. Also, in series [3], the clearance was 51.9 mL/min/kg, the half-life is 36 min, the bioavailability was determined as 5.86% and the AUC(0-t) was determined as 0.304 µM·h. The molecule further yielded a 50% inhibitory concentration (IC50) in series [2] of 0.0139 µM.

`COC(=O)N1CCC(OC(Cn2nc(C(C)(C)C(=O)O)c(=O)c3c(C)c(-c4ncco4)sc32)c2ccccc2OC)CC1` (racemic) [WX015]: the concentration for half-maximal inhibition (IC50) stood at 0.0202 µM in series [1] and 0.007 µM in series [2].

With `COc1ccccc1[C@H](Cn1nc(C2(C(=O)O)CCCCC2)c(=O)c2c(C)c(-c3ncco3)sc21)OC1CCOCC1` [WX007B], the 50% inhibitory concentration (IC50) in series [1] is 0.0091 µM; in series [2], 0.0126 µM.

On to `COc1ccccc1C(Cn1nc(C(C)(C)C(=O)O)c(=O)c2c(C)c(-c3ncco3)sc21)OC1CCN(C(C)=O)CC1` (racemic) [WX011], for which the values for the IC50 in series [1] and in series [2] were 0.026 µM and 0.0109 µM, respectively.

Regarding `COc1ccccc1C(Cn1nc(C2(C(=O)O)CCCC2)c(=O)c2c(C)c(-c3ncco3)sc21)OC1CCOCC1` (single isomer, unassigned) [WX001B], the half-maximal inhibitory concentration (IC50) is 0.0049 µM in series [1] and 0.008 µM in series [2].

Regarding `COc1ccccc1C(Cn1nc(C2(C(=O)O)CCC2)c(=O)c2c(C)c(-c3ncco3)sc21)OC1CCOCC1` (stereo not drawn) [WX006], the figures for the half-maximal inhibitory concentration (IC50) in series [1] and in series [2] were 0.0203 µM and 0.0221 µM, respectively.

For the molecule `COc1ccccc1C(Cn1nc(C(C)(C)C(=O)O)c(=O)c2c(C)c(-c3ncco3)sc21)OC1CCN(S(C)(=O)=O)CC1` (racemic) [WX012], the values for the IC50 in series [1] and in series [2] were 0.0142 µM and 0.0057 µM, respectively.

For `COc1ccccc1C(Cn1nc(C(C)(C)C(=O)O)c(=O)c2c(C)c(-c3ncco3)sc21)OC1CCN(C(=O)OC(C)(C)C)CC1` (stereo not drawn) [WX014], the IC50 came to 0.026 µM in series [1] and 0.0072 µM in series [2].

For `COc1ccccc1C(Cn1nc(C2(C(=O)O)CCNCC2)c(=O)c2c(C)c(-c3ncco3)sc21)OC1CCOCC1` (stereo not drawn) [WX010], the values for the IC50 in series [1] and in series [2] were 0.0839 µM and 0.0707 µM, respectively.

Regarding `COc1ccccc1[C@H](Cn1nc(C(F)(F)C(=O)O)c(=O)c2c(C)c(-c3ncco3)sc21)OC1CCOCC1` [WX009B], in series [1], the concentration for half-maximal inhibition (IC50) was determined as 0.0056 µM. Moreover, in series [3], the clearance came to 92.1 mL/min/kg, the half-life was 36.6 min, the bioavailability came out at 1.26% and the exposure AUC(0-t) is 0.04 µM·h. In series [2], the IC50 amounted to 0.011 µM.

As for `COc1ccccc1C(Cn1nc(C2(C(=O)O)CC2)c(=O)c2c(C)c(-c3ncco3)sc21)OC1CCOCC1` (stereo not drawn) [WX005], the IC50 in series [1] was 0.0466 µM; in series [2] it was 0.045 µM.

On to `COc1ccccc1C(Cn1nc(CC(=O)O)c(=O)c2c(C)c(-c3ncco3)sc21)OC1CCOCC1` (single isomer, unassigned) [WX003B], for which the IC50 in series [1] turned out to be 0.0109 µM; in series [2], 0.0034 µM.

With `COc1ccccc1C(Cn1nc(CC(=O)O)c(=O)c2c(C)c(-c3ncco3)sc21)OC1CCOCC1` (stereo not drawn) [WX002], the figures for the half-maximal inhibitory concentration (IC50) in series [1] and in series [2] were 0.0536 µM and 0.0087 µM, respectively.

With `COc1ccccc1[C@H](Cn1nc(C(C)(C)C(=O)O)c(=O)c2c(C)c(-c3ncco3)sc21)OC1CCOCC1` [WX004B], in series [4], the “Efficacy in NAS (anti-NASH effect)” value was “the same efficacy in both NAS and fibrosis as the reference compound at a higher dose”; the “Efficacy in fibrosis (anti-fibrosis effect)” value was “the same efficacy in both NAS and fibrosis as the reference compound at a higher dose”. Also, the AUC(0-t) in series [3] was found to be 7.21 µM·h.
